Test results published in ChEMBL document CHEMBL3045191, “Effect of soil type on adsorption-desorption, mobility, and activity of the herbicide norflurazon” (J Agric Food Chem, 2004).

What was measured:
Type in all cases: functional, organism-based
Glycine max [1] = test: Herbicidal activity against Glycine max (soybean) grown in loam soil at pH 5.5 assessed as chlorophyll bleaching effect on shoots compound treated to soil measured after 10 days relative to untreated control
Glycine max [2] = test: Herbicidal activity against Glycine max (soybean) grown in sandy clay loam soil at pH 7.9 assessed as chlorophyll bleaching effect on shoots compound treated to soil measured after 10 days relative to untreated control
Glycine max [3] = test: Herbicidal activity against Glycine max (soybean) grown in slit loam soil at pH 6.0 assessed as chlorophyll bleaching effect on shoots compound treated to soil measured after 10 days relative to untreated control
Glycine max [4] = test: Herbicidal activity against Glycine max (soybean) grown in sandy clay loam soil at pH 5.7 assessed as chlorophyll bleaching effect on shoots compound treated to soil measured after 10 days relative to untreated control
Glycine max [5] = test: Herbicidal activity against Glycine max (soybean) grown in clay soil at pH 8.0 assessed as chlorophyll bleaching effect on shoots compound treated to soil measured after 10 days relative to untreated control
Glycine max [6] = test: Herbicidal activity against Glycine max (soybean) grown in slit loam soil at pH 7.6 assessed as chlorophyll bleaching effect on shoots compound treated to soil measured after 10 days relative to untreated control
Glycine max [7] = test: Herbicidal activity against Glycine max (soybean) grown in sandy soil at pH 8.0 assessed as chlorophyll bleaching effect on shoots compound treated to soil measured after 10 days relative to untreated control
Glycine max [8] = test: Herbicidal activity against Glycine max (soybean) grown in loam soil at pH 5.8 assessed as chlorophyll bleaching effect on shoots compound treated to soil measured after 10 days relative to untreated control

CNc1cnn(-c2cccc(C(F)(F)F)c2)c(=O)c1Cl [NORFLURAZONE]
IC50 (Glycine max [1]): 0.87 mg/kg | IC50 (Glycine max [2]): 0.22 mg/kg | IC50 (Glycine max [3]): 1.94 mg/kg | IC50 (Glycine max [4]): 0.43 mg/kg | IC50 (Glycine max [5]): 1.04 mg/kg | IC50 (Glycine max [6]): 1.68 mg/kg | IC50 (Glycine max [7]): 0.08 mg/kg | IC50 (Glycine max [8]): 1.98 mg/kg
